A short description of the data set: Blending of stabilizer and sodium hypochlorite: residual oxidant (TRO, FRO) and yield. It counts as physicochemical. Particulars: Molar Ratio Cl2:N2 4:1. The procedure:
A number of biocide formulations were prepared and were applied to samples of process water from a paper mill.

Take `NS(=O)(=O)O` [sulfamic acid]: under “Caustic in Bleach = 0.5%”, the “FRO (free residual oxidant)” value was found to be 1219 ppm, the FRO/TRO is 18.61%, the “TRO (total residual oxidant)” value is given as 6550 ppm and the “TRO Yield” value is recorded as 80.93%. Under “Caustic in Bleach = 3.2%”, the “FRO (free residual oxidant)” value is recorded as 1450 ppm, the FRO/TRO is on record as 23.02%, the “TRO (total residual oxidant)” value is reported as 6300 ppm and the “TRO Yield” value is recorded as 77.84%.

The values are drawn from US9161543B2, “Biocontrol through the use of chlorine-stabilizer blends” (NALCO COMPANY, priority 2011, dated 2015).
